# Source: article PMC9782603 (Viruses, 2022)
# Read-outs that look alike come from different tables or passages of the source.
# Columns and labels:
# [1] = system: HCV GT 1b subgenomic reporter replicon (strain Con1); test: HCV GT 1b subgenomic replicon luciferase antiviral assay in Huh5-2 cells; type: cell-based; settings: Hepatitis C virus, GT1B, Huh-5-2, 72 h, read-out: EC50 HCV Replicon 1b
# [2] = system: HCV GT 3a (strain S52) replicon; test: HCV GT 3a subgenomic replicon luciferase antiviral assay in Huh7.5-3a cells; type: cell-based; settings: Hepatitis C virus, GT3A, 72 h, read-out: EC50 HCV Replicon 3a
# [3] = system: HCV GT 4a (strain ED43) replicon; test: HCV GT 4a subgenomic replicon luciferase antiviral assay in Huh7.5-4a cells; type: cell-based; settings: Hepatitis C virus, GT4A, 72 h, read-out: EC50 HCV Replicon 4a
# [4] = alamarBlue reduction cytotoxicity assay in replicon cells; type: cell-based; settings: human, HCV Replicon 1b cells
# HCV GT-1b replicon = HCV GT-1b replicon luciferase reporter assay (n ≥ 2); cited from earlier work
# NS5B = settings: cited from earlier work
# HCV GT 2a = test: Activity against HCV GT 2a (data not shown); type: cell-based
# [5] = Huh5-2, GT 1b (Con1), F-Luc, 3 days
# [6] = Huh7.5-3a, GT 3a (S52), F-Luc, 3 days
# [7] = Huh7.5-4a, GT 4a (ED43), F-Luc, 3 days
# [8] = reported NS5B TP-2 inhibitors, Figure 1
SMILES,"EC50 [1, 5]","EC50 [2, 6]","EC50 [3, 7]",CC50 at 3 days [4],melting point,EC50 (HCV GT-1b replicon),IC50 (NS5B; [8]),EC50 [1],activity against GT 2a (HCV GT 2a),IC50 (NS5B; enzymatic assays),EC50 [2],EC50 [3]
"Cc1cccc(-n2c(C)nc(=O)c3cc(N)ccc32)c1 [9b, 6-Amino-2-methyl-1-(m-tolyl)quinazolin-4(1H)-one]",> 10 µM,> 10 µM,> 10 µM,> 200 µM,270 to 273 °C,,,,,,,
CC1CCC(C(=O)N(c2ccc(Oc3ncccc3C(F)(F)F)cc2C(=O)O)C(C)C)CC1 (centres unmarked) [VI],,,,,,0.095 µM,0.08 µM,,,,,
"Cc1cc(OCC(=O)Nc2ccc3c(c2)c(=O)ncn3-c2ccccc2)ccc1Cl [7c, 2-(4-Chloro-3-methylphenoxy)-N-(4-oxo-1-phenyl-1,4-dihydroquinazolin-6-yl)acetamide]",> 10 µM,> 10 µM,> 10 µM,75.2 ± 9.24 µM,255 °C,,,,,,,
Cc1ccc(S(=O)(=O)Nc2ccc(Oc3ccccc3)cc2C(=O)O)cc1 [V],,,,,,> 30 µM,0.22 µM,,,,,
"NC(=O)c1cc([N+](=O)[O-])ccc1Nc1ccccc1 [3a, 5-nitro-2-(phenylamino)benzamide]",> 10 µM,> 10 µM,> 10 µM,70.69 ± 0.04 µM,,,,,,,,
"Cc1cccc(-n2cnc(=O)c3cc(N)ccc32)c1 [5b, 6-Amino-1-(m-tolyl)quinazolin-4(1H)-one]",> 10 µM,> 10 µM,> 10 µM,> 200 µM,288 to 290 °C,,,,,,,
"Cc1ccc(OCC(=O)Nc2ccc3c(c2)c(=O)ncn3-c2ccccc2)cc1 [7a, N-(4-Oxo-1-phenyl-1,4-dihydroquinazolin-6-yl)-2-(p-tolyloxy)acetamide]",> 10 µM,> 10 µM,> 10 µM,84.7 ± 14 µM,220 °C,,,,,,,
"Cc1cccc(-n2c(C)nc(=O)c3cc(NC(=O)COc4ccc(Cl)c(C)c4)ccc32)c1 [11f, 2-(4-Chloro-3-methylphenoxy)-N-(2-methyl-4-oxo-1-(m-tolyl)-1,4-dihydroquinazolin-6-yl)acetamide]",> 1 µM,> 10 µM,> 10 µM,27.4 ± 2.71 µM,290 °C,,,,,,,
"O=C(O)c1cc([N+](=O)[O-])ccc1Nc1ccccc1 [1a, 5-nitro-2-(phenylamino)-benzoic acid]",> 10 µM,> 10 µM,> 10 µM,> 200 µM,,,,,,,,
"Cc1cccc(-n2cnc(=O)c3cc([N+](=O)[O-])ccc32)c1 [4b, 6-Nitro-1-(m-tolyl)quinazolin-4(1H)-one]",> 10 µM,> 10 µM,> 10 µM,64.9 ± 0.03 µM,185 °C,,,,,,,
"Cc1nc(=O)c2cc(N)ccc2n1-c1ccccc1 [9a, 6-Amino-2-methyl-1-phenylquinazolin-4(1H)-one]",,> 10 µM,> 10 µM,> 200 µM,268 to 270 °C,,,> 10 µM,,,,
"Cc1cccc(-n2c(C)nc(=O)c3cc(NC(=O)COc4ccc(Cl)cc4)ccc32)c1 [11e, 2-(4-Chlorophenoxy)-N-(2-methyl-4-oxo-1-(m-tolyl)-1,4-dihydroquinazolin-6-yl)acetamide]",6.24 ± 0.04 µM,8.4 ± 0.15 µM,15.2 ± 0.29 µM,36.6 ± 4.19 µM,283 °C,,,,no activity,,,
CC1CCC(C(=O)N(c2cc(-c3ccccc3)sc2C(=O)O)C(C)C)CC1 (centres unmarked) [IV],,,,,,,0.028 µM,,,,,
"Cc1cccc(-n2cnc(=O)c3cc(NC(=O)CCl)ccc32)c1 [6b, 2-Chloro-N-(4-oxo-1-(m-tolyl)-1,4-dihydroquinazolin-6-yl)acetamide]",> 10 µM,> 10 µM,> 10 µM,143 ± 14.2 µM,290 °C,,,,,,,
CCc1ccc(/C=C2\SC(N[C@H](C(=O)O)c3ccc(F)cc3)=NC2=O)o1 [III],,,,,,,,,,3 µM,,
"Cc1cccc(Nc2ccc([N+](=O)[O-])cc2C(=O)O)c1 [1b, 5-nitro-2-(m-tolylamino)benzoic acid]",> 10 µM,> 10 µM,> 10 µM,> 200 µM,,,,,,,,
"Cc1nc(=O)c2cc([N+](=O)[O-])ccc2n1-c1ccccc1 [8a, 2-Methyl-6-nitro-1-phenylquinazolin-4(1H)-one]",,> 10 µM,> 10 µM,> 200 µM,260 to 262 °C,,,> 10 µM,,,,

SMILES,"EC50 [1, 5]","EC50 [2, 6]","EC50 [3, 7]",CC50 at 3 days [4],melting point,EC50 (HCV GT-1b replicon),IC50 (NS5B; [8]),EC50 [1],activity against GT 2a (HCV GT 2a),IC50 (NS5B; enzymatic assays),EC50 [2],EC50 [3]
"Cc1ccc(OCC(=O)Nc2ccc3c(c2)c(=O)ncn3-c2cccc(C)c2)cc1 [7d, N-(4-oxo-1-(m-tolyl)-1,4-dihydroquinazolin-6-yl)-2-(p-tolyloxy)acetamide]",> 10 µM,> 10 µM,> 10 µM,50.1 ± 1.77 µM,206 °C,,,,,,,
"Cc1cccc(-n2cnc(=O)c3cc(NC(=O)COc4ccc(Cl)cc4)ccc32)c1 [7e, 2-(4-Chlorophenoxy)-N-(4-oxo-1-(m-tolyl)-1,4-dihydroquinazolin-6-yl)acetamide]",> 10 µM,> 10 µM,> 10 µM,47.6 ± 5.56 µM,255 °C,,,,,,,
O=c1ncn(Cc2c(F)cc(F)cc2F)c2ccc(Oc3cccc(-c4ccccn4)c3C(F)(F)F)cc12 [VIII],,,,,,0.31 µM,,,,,,
Cc1ccc(S(=O)(=O)Nc2cc(-c3ccc(F)cc3)sc2C(=O)O)cc1 [I],,,,,,,0.29 µM,,,,,
"COC(=O)N[C@H](C(=O)N1CCC[C@H]1c1nc(-c2ccc(-c3ccc(-c4c[nH]c([C@@H]5CCCN5C(=O)[C@@H](NC(=O)OC)C(C)C)n4)cc3)cc2)c[nH]1)C(C)C [Daclatasvir, reference compound]",2.66e-05 µM,,,17.7 µM,,,,,,,2.12e-05 µM,0.008 ± 0.001 µM
"Cc1cccc(-n2c(C)nc(=O)c3cc([N+](=O)[O-])ccc32)c1 [8b, 2-Methyl-6-nitro-1-(m-tolyl)quinazolin-4(1H)-one]",,> 10 µM,> 10 µM,151 ± 5.41 µM,258 to 260 °C,,,> 10 µM,,,,
"Cc1cccc(-n2c(C)nc(=O)c3cc(NC(=O)CCl)ccc32)c1 [10b, 2-Chloro-N-(2-methyl-4-oxo-1-(m-tolyl)-1,4-dihydroquinazolin-6-yl)acetamide]",> 10 µM,> 10 µM,> 10 µM,177.2 ± 0.03 µM,280 °C,,,,,,,
"O=C(COc1ccc(Cl)cc1)Nc1ccc2c(c1)c(=O)ncn2-c1ccccc1 [7b, 2-(4-Chlorophenoxy)-N-(4-oxo-1-phenyl-1,4-dihydroquinazolin-6-yl)acetamide]",> 10 µM,> 10 µM,> 10 µM,154 ± 3.71 µM,262 °C,,,,,,,
"Cc1cccc(-n2cnc(=O)c3cc(NC(=O)COc4ccc(Cl)c(C)c4)ccc32)c1 [7f, 2-(4-Chloro-3-methylphenoxy)-N-(4-oxo-1-(m-tolyl)-1,4-dihydroquinazolin-6-yl)acetamide]",> 10 µM,> 10 µM,> 10 µM,105 ± 10.3 µM,269 °C,,,,,,,
"Cc1nc(=O)c2cc(NC(=O)CCl)ccc2n1-c1ccccc1 [10a, 2-Chloro-N-(2-methyl-4-oxo-1-phenyl-1,4-dihydroquinazolin-6-yl)acetamide]",> 10 µM,> 10 µM,> 10 µM,87.47 ± 0.24 µM,285 °C,,,,,,,
"O=C(CCl)Nc1ccc2c(c1)c(=O)ncn2-c1ccccc1 [6a, 2-Chloro-N-(4-oxo-1-phenyl-1,4-dihydroquinazolin-6-yl)acetamide]",> 10 µM,> 10 µM,> 10 µM,104.2 ± 0.03 µM,< 300 °C,,,,,,,
"Cc1ccc(OCC(=O)Nc2ccc3c(c2)c(=O)nc(C)n3-c2cccc(C)c2)cc1 [11d, N-(2-Methyl-4-oxo-1-(m-tolyl)-1,4-dihydroquinazolin-6-yl)-2-(p-tolyloxy)acetamide]",> 1 µM,> 10 µM,> 10 µM,22.7 ± 2.23 µM,270 °C,,,,,,,
"Nc1ccc2c(c1)c(=O)ncn2-c1ccccc1 [5a, 6-Amino-1-phenylquinazolin-4(1H)-one]",9.84 ± 0.57 µM,> 10 µM,> 10 µM,> 200 µM,293 to 295 °C,,,,,,,
"Cc1cc(OCC(=O)Nc2ccc3c(c2)c(=O)nc(C)n3-c2ccccc2)ccc1Cl [11c, 2-(4-Chloro-3-methylphenoxy)-N-(2-methyl-4-oxo-1-phenyl-1,4-dihydroquinazolin-6-yl)acetamide]",> 10 µM,> 10 µM,> 10 µM,> 200 µM,271 °C,,,,,,,
"Cc1cccc(Nc2ccc([N+](=O)[O-])cc2C(N)=O)c1 [3b, 5-Nitro-2-(m-tolylamino) benzamide]",> 10 µM,> 10 µM,> 10 µM,161.3 ± 0.07 µM,188 to 190 °C,,,,,,,
"O=c1ncn(-c2ccccc2)c2ccc([N+](=O)[O-])cc12 [4a, 6-Nitro-1-phenylquinazolin-4(1H)-one]",> 10 µM,> 10 µM,> 10 µM,> 200 µM,246 to 248 °C,,,,,,,
